What all share (assay type): physicochemical
The nature of series [1]: Luminescence quantum yield and luminescence intensity in solution. Particulars: acetonitrile solution; for Relative luminescence intensity: Eu 0.05 mol/L, relative to Eu(PMS)3 (Comparative Example 7) = 1; for Luminescence quantum yield: europium ion 0.05 mol/L, excitation 465 nm, luminescence 612 nm. The procedure: (§1) The intensity of luminescence and the luminescence quantum yield, the quotient of dividing the number of photons emitted from a sample by the number of photons absorbed into the sample, were measured with an SS-25 from JASCO Corporation.
The luminescence quantum yield of an acetonitrile solution of the Eu(PMS)3(TPPO)8 obtained in Example 1 (europium ion concentration: 0.05 mol/L) was measured (excitation wavelength: 465 nm, maximum luminescence wavelength: 612 nm, luminescence wavelength used in measurement: 612 nm).
The solutions prepared in Examples 12 to 14 and Comparative Examples 7 to 9 and Comparative Example B were measured for luminescence intensity at the respective maximum luminescence wavelengths.
The relative luminescence intensity of the solutions used in Examples 12 to 14 and Comparative Example B: (luminescence intensity in each of Examples 12 to 14)/(luminescence intensity in Comparative Example 7) was calculated, letting 1 be the luminescence intensity in Comparative Example 7 (solution of a rare earth complex in which the ligand Z was not coordinated).
Similarly, the relative luminescence intensity in Comparative Example 9: (luminescence intensity in Comparative Example 9)/(luminescence intensity in Comparative Example 8) was calculated, letting 1 be the luminescence intensity in Comparative Example 8 (solution of a known β-diketone-type of rare earth complex in which the ligand Z was not coordinated). The relative luminescence intensity of the solution used in Comparative Example B was 1.6 times.
The luminescence quantum yield of an acetone-d6 solution of the Nd(PMS)3(TPPO)8 obtained in Example 2 (neodymium ion concentration: 0.05 mol/L) was measured (excitation wavelength: 585 nm, maximum luminescence wavelength: 1064 nm, luminescence wavelength used in measurement: 1064 nm).
The solutions prepared in Examples 15 and 16 and Comparative Examples 10 were measured for luminescence intensity at the respective maximum luminescence wavelengths. The relative luminescence intensity in Examples 15 and 16: (luminescence intensity in each of Examples 15 and 16)/(luminescence intensity in Comparative Example 10) was calculated, letting 1 be the luminescence intensity in Comparative Example 10 (rare earth complex in which the ligand Z was not coordinated).

The nature of series [2]: Mechanoluminescence of polycarbonate film hit with a metal rod. Particulars: polycarbonate film about 6 μm thick, visual. The procedure:
The rare earth ternary complex of the present invention can be used as a mechanoluminescence material. The term mechanoluminescence as used here refers to a phenomenon whereby physical force (such as pressure, vibration energy or the like) imparted to the rare earth ternary complex is converted into optical energy, causing the complex to emit light.
A 50 mg quantity of the Eu(PMS)3(Phen)m obtained in Example 8 and 450 mg of polycarbonate were dissolved in 3 mL of methylene chloride and then uniformly stirred to obtain a polymer solution. This polymer solution was then cast onto a glass plate, after which it was dried in vacuo overnight to remove the solvent, forming a polycarbonate film containing Eu(PMS)3(Phen)m, which is about 6 μm thick, on the glass plate.
A polycarbonate film containing Eu(PMS)3, which is about 6 μm thick, was formed on a glass plate in the same manner as in Example 22, except that 42 mg of the Eu(PMS)3 prepared in Producing Example 1 was used instead of Eu(PMS)3 (Phen) m.

Series [3] can be described thus: Luminescence quantum yield and luminescence intensity in PMMA polymer matrix composition. Particulars: PMMA rod; for Relative luminescence intensity: Eu 0.7 wt %, relative to Eu(PMS)3 (Comparative Example 11) = 1. The procedure: as §1
A 1 mL quantity of refined anhydrous methyl methacrylate (MMA), 0.5 mg of AIBN, and 148 mg (0.7 wt %) as the rare earth ion concentration) of the Eu (PMS)3 (TPPO)8 obtained in Example 1 were mixed, the mixture was transferred to a Pyrex tube, and the inside of the tube was deaerated and then sealed. By reacting for 5 hours at 60° C., the polymerization of MMA was carried out. The resulting PMMA containing Eu(PMS)3 (TPPO)8 was taken out of the Pyrex tube, and a rod-shaped polymer matrix composition was obtained.
The polymer matrix compositions prepared in Examples 17 to 19 and Comparative Example 11 were measured for luminescence intensity at the respective maximum luminescence wavelengths. The relative luminescence intensity in Examples 17 to 19: (luminescence intensity in each of Examples 17 to 19)/(luminescence intensity in Comparative Example 11) was calculated, letting 1 be the luminescence intensity in Comparative Example 11 (rare earth complex in which the ligand Z was not coordinated).
A rod-shaped polymer matrix composition containing […] was obtained in the same manner as in Example 17, except that 148 mg (rare earth ion concentration: 0.7 wt %) of the Nd(PMS)3 (TPPO)8 obtained in Example 2 was used instead of Eu(PMS)3 (TPPO)8.
The polymer matrix compositions prepared in Examples 20 and 21 and Comparative Example 12 were measured for luminescence intensity at the respective maximum luminescence wavelengths. The relative luminescence intensity in Examples 20 and 21: (luminescence intensity in each of Examples 20 and 21)/(luminescence intensity in Comparative Example 12) was calculated, letting 1 be the luminescence intensity in Comparative Example 12 (rare earth complex in which the ligand Z was not coordinated).

The nature of series [4]: Number of moles of bound water per mole of complex (TG-DTA). Particulars: for Bound water (number of moles of bound water per mole of complex): Table 1, dried samples for the ternary complexes. The procedure, abridged: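 Bound water per mole of Eu(PMS)3(TPPO)8 complex derived from TG-DTA weight loss at 100° C. Crystals measured as recrystallized from water-methanol and again after vacuum drying 3 h at 140° C, […].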

A short description of series [5]: Miscibility with solvents, visual evaluation at 5 wt %. Particulars: complex added at 5 wt %. More on the design: key: ⊚: dissolves at room temperature; ◯: dissolves when heated for 5 minutes at 40° C.; Δ: dissolves under heating, but cooling precipitates crystals; X: does not dissolve. The procedure: The miscibility of the rare earth complex with various media was evaluated as follows.
1) Miscibility with Solvents

The nature of series [6]: Miscibility with a polymer matrix, visual evaluation. More on the design: key to Miscibility, PMMA: ⊚: dissolves up to 30 wt %; ◯: dissolves up to 5 wt %; Δ: disperses up to 5 wt %, but there is turbidity; X: repelled at the polymer surface. The method in brief:
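Complex added to various polymer media at set concentrations and miscibility judged visually: dissolves up to 30 wt %, dissolves up to 5 wt %, disperses up to 5 wt % with turbidity, or repelled at polymer surface.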

For the compound `O=S(=O)([N-]S(=O)(=O)C(F)(F)F)C(F)(F)F.O=S(=O)([N-]S(=O)(=O)C(F)(F)F)C(F)(F)F.O=S(=O)([N-]S(=O)(=O)C(F)(F)F)C(F)(F)F.[Eu+3].c1cnc2c(c1)ccc1cccnc12.c1cnc2c(c1)ccc1cccnc12.c1cnc2c(c1)ccc1cccnc12.c1cnc2c(c1)ccc1cccnc12` [Eu(PMS)3(Phen)m], in series [1], the Relative luminescence intensity is recorded as 49.5 and the Luminescence quantum yield is 5.1%. Further, the “Light emission when film is hit with a metal rod (mechanoluminescence)” value in series [2] is reported as “emits red light”. Further, the Relative luminescence intensity in series [3] is 5566. The “Bound water (number of moles of bound water per mole of complex)” value in series [4] came to 0.00. For the same compound, the “Number of moles of bound water per mole of complex” value in series [4] (after drying in vacuo at 140° C.) was “water had been completely removed”. In addition, the “Number of moles of bound water per mole of complex” value in series [4] (before drying (crystals as obtained), weight reduction at 100° C.) is 3.06. In addition, in series [5], the “Miscibility, Acetone” value was “⊚”; the “Miscibility, Chloroform” value was “Δ”; the “Miscibility, Toluene” value is recorded as “Δ”; the “Miscibility, Water” value is on record as “X”. In series [6], the “Miscibility, Epoxy resin” value is “◯ (dissolves up to 5 wt %)”; the “Miscibility, Nafion” value is “◯ (dissolves up to 5 wt %)”; the “Miscibility, PMMA” value was “◯ (dissolves up to 5 wt %)”.
On to `O=S(=O)([N-]S(=O)(=O)C(F)(F)F)C(F)(F)F.O=S(=O)([N-]S(=O)(=O)C(F)(F)F)C(F)(F)F.O=S(=O)([N-]S(=O)(=O)C(F)(F)F)C(F)(F)F.[Eu+3]` [Eu(PMS)3, reference compound], for which, in series [1], the Relative luminescence intensity is on record as 1.0 and the Luminescence quantum yield stood at 5.0%. Besides, in series [2], the “Light emission when film is hit with a metal rod (mechanoluminescence)” value is “no light emission was noted”. The compound also showed a Relative luminescence intensity in series [3] of 1.0. For the same compound, in series [3] (rare earth ion 0.7 wt %, excitation 465 nm, luminescence 612 nm), the Luminescence quantum yield is 2.5%. Also, the “Bound water (number of moles of bound water per mole of complex)” value in series [4] is 2.08. Further, in series [5], the “Miscibility, Acetone” value is on record as “⊚”; the “Miscibility, Chloroform” value is “X”; the “Miscibility, Toluene” value is “X”; the “Miscibility, Water” value was “⊚”. Also, in series [6], the “Miscibility, Epoxy resin” value is “Δ (disperses up to 5 wt %, but there is turbidity)”; the “Miscibility, Nafion” value is given as “Δ (disperses up to 5 wt %, but there is turbidity)”; the “Miscibility, PMMA” value is recorded as “X”.
